Results from patent publication US20030166605A1, “Method of minimizing damage to heart tissue during cardiac surgery and cardiac transplantation” (priority 1999, published 2003).
Where two headings read alike, the source gives them in different places.

Assay type: in vivo
Conditions: for Cardiac Index, slope of percentage change from baseline (Slope ± SE) / Pulmonary capillary wedge pressure, slope of percentage change from baseline (Slope ± SE) / Systolic Blood Pressure, slope of percentage change from baseline (Slope ± SE): per hour; for Cardiac Index, slope of percentage change from baseline (Slope ± SE) / Pulmonary capillary wedge pressure, slope of percentage change from baseline (Slope ± SE) / Systolic Blood Pressure, slope of percentage change from baseline (Slope ± SE) / Heart Rate, slope of percentage change from baseline (Slope ± SE): first 24 postoperative hours; for Heart Rate, slope of percentage change from baseline (Slope ± SE): percentage change per hour; for absolute mean heart rate: 24 hours after surgery; for patients who received dopamine / use of any inotropic agent: first 7 days after surgery; for patients who received dopamine: placebo 77%; for use of any inotropic agent: placebo 79%; for insertions of an intraaortic balloon pump for low cardiac output: nine in placebo group; for death rate: placebo 6.0%
Description: A double blind, placebo controlled trial was performed on 253 patients randomized into three groups. The objective of the study was to evaluate the safety, tolerance and efficacy of adenosine in patients undergoing coronary artery bypass surgery. Inadequate myocardial protection in patients undergoing coronary artery bypass surgery contributes to overall hospital mortality and morbidity.
The treatments included the intraoperative administration of cold blood cardioplegia, blood cardioplegia including 500 μM adenosine (“low dose adenosine”), and blood cardioplegia including 200 mM adenosine (“high dose adenosine”). Patients receiving adenosine were also given an infusion of adenosine (200 μg/kg/min) 10 minutes before and 15 minutes after removal of the aortic crossclamp. Invasive and non-invasive measurements of ventricular performance were obtained before, during and after surgery.
Exclusion criteria included known or suspected pregnancy, known hypersensitivity to adenosine, and enrollment in another clinical trial study.
Study Design: 253 patients were split into three groups. Group A patients (n=84) received placebo and were given standard hyperkalemic cold blood cardioplegia. Group B patients (low dose adenosine, n=84) were given hyperkalemic cold blood cardioplegia containing 500 μM adenosine. Group C patients (high dose adenosine) were given hyperkalemic cold blood cardioplegia containing 200 mM adenosine. The patients who received adenosine cardioplegia were also exposed to a 10 minute infusion of adenosine pre-treatment (200 μg/kg/min) immediately before application of the aortic crossclamp and a 15 minute infusion of adenosine immediately after removing the crossclamp.
Before surgery, patients were evaluated for the degree of ischemic disease by history, echocardiography, and cardiac catheterization. In the operating room, hemodynamic measurements were obtained and recorded just before initiating cardiopulmonary bypass and 15, 30, 45 and 60 minutes and 2, 3, 4, 5, and 8 hours after cessation of bypass. In patients requiring intravenous inotropic medications in the postoperative period, hemodynamic monitoring was continued with measurements of specified parameters every 2 hours for 24 hours, and then every 4 hours until the inotropic medications were discontinued or it was ascertained that monitoring was no longer helpful in the management of the patient.
Invasive hemodynamic measurements included systolic blood pressure, heart rate, central venous pressure, pulmonary artery pressure, pulmonary capillary wedge pressure and cardiac output. The cardiac index, stroke volume, systemic vascular resistance, pulmonary vascular resistance, right ventricular stroke work index and left ventricular stroke index were derived. The cardiac output measurements were obtained using a thermodilution catheter and computer. Noninvasive heart function studies included 12-lead electrocardiograms, preoperative stress dobutamine echocardiography, and pre- and post-operative transthoracic and transesophageal echocardiograms. Patients were monitored from the time of enrollment to follow-up 4 to 6 weeks after discharge from the hospital. This included routine blood work and chemistries, arterial blood gases, pH, creatine kinase (CK)-MB concentrations, and pulse oximetry.
The primary endpoints of the study were reduction in total dopamine use during the first 7 days, reduction in all inotropic support required during the first 7 days, reduction in the use of dopamine to less than 5 μg/kg/min.
There were 21 secondary endpoints, including improvement in postoperative hemodynamics, reduction in the use of the intraaortic balloon pump, reduction in the incidence of myocardial infarction, and decrease in the mortality rate.
All patients who received study treatment and underwent coronary bypass surgery were included in the intent-to-treat analysis. […]

[1] = Group B, low dose adenosine (500 μM cardioplegia + infusion)
[2] = Group C, high dose adenosine (200 mM cardioplegia + infusion)

## Nc1ncnc2c1ncn2[C@@H]1O[C@H](CO)[C@@H](O)[C@H]1O [adenosine]
[1]
  Cardiac Index, slope of percentage change from baseline (Slope ± SE): 1.130 ± 0.105
  Pulmonary capillary wedge pressure, slope of percentage change from baseline (Slope ± SE): 0.688 ± 0.249
  Systolic Blood Pressure, slope of percentage change from baseline (Slope ± SE): 0.387 ± 0.060
Group B, low dose adenosine (500 μM in cold blood cardioplegia + 200 μg/kg/min infusion)
  Heart Rate, slope of percentage change from baseline (Slope ± SE): 0.510 ± 0.078
[2]
  Cardiac Index, slope of percentage change from baseline (Slope ± SE): 1.468 ± 0.112
  Pulmonary capillary wedge pressure, slope of percentage change from baseline (Slope ± SE): −0.869 ± 0.288
  Systolic Blood Pressure, slope of percentage change from baseline (Slope ± SE): 0.440 ± 0.063
Group C, high dose adenosine (200 mM in cold blood cardioplegia + 200 μg/kg/min infusion)
  Heart Rate, slope of percentage change from baseline (Slope ± SE): 0.820 ± 0.081
High dose adenosine group versus placebo
  high-dose dopamine support (>5 μg/kg/min): trend toward a decrease
High dose adenosine group
  absolute mean heart rate: 96.8±5.4 beats per minute
  patients who received dopamine: 79%
  use of any inotropic agent: 80%
  insertions of an intraaortic balloon pump for low cardiac output: five
  death rate: 1.2%
High dose adenosine group, placebo 9.5%
  postoperative MI rate: 1.2%
High dose adenosine versus placebo, p=0.006
  percentage of patients experiencing one of the composite adverse events (high dose dopamine, epinephrine use, intraaortic balloon pump, MI, death): lower
human, in vivo
  safety and tolerance: safe and well tolerated
Low dose adenosine group
  absolute mean heart rate: 90.7±3.6 beats per minute
  patients who received dopamine: 71%
  use of any inotropic agent: 73%
  insertions of an intraaortic balloon pump for low cardiac output: two
  death rate: 3.6%
